In patent US4273923A, “Process for preparing aminoglycoside derivatives” (Shionogi & Co., Ltd., priority 1979, dated 1981):
In brackets after ≈: the same amount, converted by molar mass.

Tested on: Staphylococcus epidermidis TB-172
Experiment: MIC by agar dilution method
Type: cell-based
Conditions: TB172, tobramycin resistant strain, innoculum size 10^4 CFU/ml, 37° C., 18 to 20 hours, read-out: Minimum Inhibitory Concentration (MIC)

NC[C@H]1O[C@H](O[C@H]2[C@H](O)[C@@H](O[C@H]3O[C@H](CO)[C@@H](O)[C@H](N)[C@H]3O)[C@H](N)C[C@@H]2N)[C@H](N)C[C@@H]1O [TOB, tobramycin]
MIC: 25 µg/mL (≈ 53.5 µM)

NCC1=CC[C@@H](N)[C@@H](O[C@H]2[C@H](O)[C@@H](O[C@H]3O[C@H](CO)[C@@H](O)[C@H](N)[C@H]3O)[C@H](N)C[C@@H]2N)O1 [[A], O-[3-amino-3-deoxy-α-D-glucopyranosyl-(1→6)]-O-[2,6-diamino-2,3,4,6-tetradeoxy-α-D-glycero-hex-4-enopyranosyl-(1→4)]-2-deoxy-D-streptamine]
MIC: 0.1 µg/mL (≈ 0.222 µM)
